Laboratory results reported in patent US12195430B1, “6-(4,5-bis(4-bromophenyl)-2-(4-methoxyphenyl)-1H-imidazol-1-yl)hexanoic acid as an antimicrobial compound” (KING FAISAL UNIVERSITY, priority 2023, dated 2025).

How the values were obtained:
Format in all cases: cell-based
Bacillus cereus = assay: Agar plate disc-diffusion, antibacterial inhibition zone; details: nutrient agar, 37° C., 48 h
Description: (§1) The agar plate disc-diffusion method was applied. […] The discs were then placed onto the surface of agar plates (nutrient agar for bacteria and Sabouraud's dextrose agar for fungi) seeded with the test organism. Each plate contained 15 mL of the agar medium, previously seeded with 0.2 mL of the broth culture of each organism pregrown for 18 h. The plates were incubated at 37° C. for 48 h, and 72 h for fungi. The inhibition zones was measured in mm. Discs impregnated with DMSO were used as a control, and its inhibition zone was subtracted from the tested compound actual inhibition zone.

Aspergillus flavus = assay: Agar plate disc-diffusion, antifungal inhibition zone; details: Sabouraud's dextrose agar, 72 h
Description: as §1

[1] = tested on: Chrysosporium keratinophilum; assay: as above; details: Sabouraud's dextrose agar, 72 h
Description: as §1

Staphylococcus aureus = assay: Agar plate disc-diffusion, antibacterial inhibition zone; details: nutrient agar, 37° C., 48 h
Description: as §1

Escherichia coli = assay: as above; details: nutrient agar, 37° C., 48 h
Description: as §1

Pseudomonas aeruginosa = assay: as above; details: nutrient agar, 37° C., 48 h
Description: as §1

[2] = B = concentration of comp. = 30,000 μL
[3] = A = concentration of comp. = 10,000 μL
[4] = C = concentration of comp. = 50,000 μL

SMILES: O=C(O)c1cn(C2CC2)c2cc(N3CCNCC3)c(F)cc2c1=O [Cip., reference compound]
- inhibition zone, Bacillus Cereus (Bacillus cereus; [2]): 31 mm
- inhibition zone, Aspergillus flavus (Aspergillus flavus; [3]): 28 mm
- inhibition zone, Aspergillus flavus (Aspergillus flavus; [2]): 31 mm
- inhibition zone, Aspergillus flavus (Aspergillus flavus; [4]): 43 mm
- inhibition zone, Chrysosporium keratinophilum [1, 2]: 33 mm
- inhibition zone, Chrysosporium keratinophilum [1, 4]: 55 mm

SMILES: COc1ccc(-c2nc(-c3ccc(Br)cc3)c(-c3ccc(Br)cc3)n2CCCCCC(=O)O)cc1 [V, 6-(4,5-bis(4-bromophenyl)-2-(4-methoxyphenyl)-1H-imidazol-1-yl)hexanoic acid]
- inhibition zone, Bacillus Cereus (Bacillus cereus; [3]): 18 mm
- inhibition zone, Bacillus Cereus (Bacillus cereus; [2]): 20 mm
- inhibition zone, Bacillus Cereus (Bacillus cereus; [4]): 35 mm
- inhibition zone, Staphylococcus aureus (Staphylococcus aureus; [3]): 21 mm
- inhibition zone, Staphylococcus aureus (Staphylococcus aureus; [2]): 28 mm
- inhibition zone, Staphylococcus aureus (Staphylococcus aureus; [4]): 38 mm
- inhibition zone, Escherichia coli (Escherichia coli; [3]): 27 mm
- inhibition zone, Escherichia coli (Escherichia coli; [2]): 35 mm
- inhibition zone, Escherichia coli (Escherichia coli; [4]): 49 mm
- inhibition zone, Pseudomonas aeruginosa (Pseudomonas aeruginosa; [3]): 26 mm
- inhibition zone, Pseudomonas aeruginosa (Pseudomonas aeruginosa; [2]): 28 mm
- inhibition zone, Pseudomonas aeruginosa (Pseudomonas aeruginosa; [4]): 40 mm
- inhibition zone, Aspergillus flavus (Aspergillus flavus; [3]): 25 mm
- inhibition zone, Aspergillus flavus (Aspergillus flavus; [2]): 28 mm
- inhibition zone, Aspergillus flavus (Aspergillus flavus; [4]): 35 mm
- inhibition zone, Chrysosporium keratinophilum [1, 3]: 25 mm
- inhibition zone, Chrysosporium keratinophilum [1, 2]: 27 mm
- inhibition zone, Chrysosporium keratinophilum [1, 4]: 47 mm
